Results: patent publication US11919901B2 (Syndax Pharmaceuticals, Inc., priority 2021, dated 2024)

Target: Menin-MLL (Homo sapiens (Human), UniProt O00255)
Experiment: Determination of binding constants (Ki) to Menin-MLL (HTRF)
Conditions: HTRF, 0.25 nM H-FL-Menin, 3.2 nM FITC-MLL-4-43, 24 hr incubation; for Ki: read-out: Menin-MLL Ki HTRF Assay: Ki

Chain of Menin-MLL (O00255 whole entry): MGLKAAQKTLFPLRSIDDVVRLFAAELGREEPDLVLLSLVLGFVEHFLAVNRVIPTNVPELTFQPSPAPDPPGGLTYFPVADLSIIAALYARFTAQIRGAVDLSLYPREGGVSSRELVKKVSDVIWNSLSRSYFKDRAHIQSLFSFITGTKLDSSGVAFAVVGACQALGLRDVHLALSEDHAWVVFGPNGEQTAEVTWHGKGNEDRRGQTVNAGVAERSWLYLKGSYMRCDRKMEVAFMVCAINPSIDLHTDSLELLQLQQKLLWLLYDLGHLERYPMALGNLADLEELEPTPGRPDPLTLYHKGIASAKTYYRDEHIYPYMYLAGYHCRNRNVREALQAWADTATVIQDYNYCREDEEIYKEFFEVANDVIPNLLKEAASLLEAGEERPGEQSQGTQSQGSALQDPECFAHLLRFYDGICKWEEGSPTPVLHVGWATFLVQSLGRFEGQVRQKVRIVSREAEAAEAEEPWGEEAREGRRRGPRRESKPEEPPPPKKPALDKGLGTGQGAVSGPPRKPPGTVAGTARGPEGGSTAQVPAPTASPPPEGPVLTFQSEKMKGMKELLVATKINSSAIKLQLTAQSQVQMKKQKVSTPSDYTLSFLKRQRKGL

SMILES	EC50 [nM]	Ki [nM]
C[C@@H]1COC[C@@H](C)N1C(=O)c1cc(F)ccc1Oc1cncnc1N1CC2(CCN(C[C@@H]3CC[C@@H](NS(C)(=O)=O)CO3)CC2)C1 [Compound 28, N-((3R,6S)-6-((2-(5-(2-((3R,5R)-3,5-dimethylmorpholine-4-carbonyl)-4-fluorophenoxy)pyrimidin-4-yl)-2,7-diazaspiro[3.5]nonan-7-yl)methyl)tetrahydro-2H-pyran-3-yl)methanesulfonamide]	< 50	< 1
CCS(=O)(=O)N[C@@H]1CC[C@@H](CN2CCC3(CC2)CN(c2ncncc2Oc2ccc(F)cc2C(=O)N2[C@H](C)COC[C@H]2C)C3)OC1 [Compound 29]	< 50	< 1
CC(C)S(=O)(=O)N[C@@H]1CC[C@@H](CN2CCC3(CC2)CN(c2ncncc2Oc2ccc(F)cc2C(=O)N2[C@H](C)COC[C@H]2C)C3)OC1 [Compound 30]	< 50	< 1
C[C@@H]1COC[C@@H](C)N1C(=O)c1cc(F)ccc1Oc1cncnc1N1CC2(CCN(C[C@@H]3CC[C@@H](NS(=O)(=O)C4CC4)CO3)CC2)C1 [Compound 31, N-((3R,6S)-6-((2-(5-(2-((3R,5R)-3,5-dimethylmorpholine-4-carbonyl)-4-fluorophenoxy)pyrimidin-4-yl)-2,7-diazaspiro[3.5]nonan-7-yl)methyl)tetrahydro-2H-pyran-3-yl)cyclopropanesulfonamide]	< 50	< 1
C[C@@H]1COC[C@@H](C)N1C(=O)c1cc(F)ccc1Oc1cncnc1N1CC2(CCN(C[C@@H]3CC[C@@H](NS(=O)(=O)C4COC4)CO3)CC2)C1 [Compound 32]	< 50	< 1
CCS(=O)(=O)N[C@@H]1CC[C@@H](CN2CCC3(CC2)CN(c2ncncc2Oc2ccc(F)cc2C(=O)N(CCOC)C(C)C)C3)OC1 [Compound 35, 2-((4-(7-(((2S,5R)-5-(ethylsulfonamido)tetrahydro-2H-pyran-2-yl)methyl)-2,7-diazaspiro[3.5]nonan-2-yl)pyrimidin-5-yl)oxy)-5-fluoro-N-isopropyl-N-(2-methoxyethyl)benzamide]	< 50	< 1
CCS(=O)(=O)N[C@@H]1CC[C@@H](CN2CCC3(CC2)CN(c2ncncc2Oc2ccc(F)cc2C(=O)N2[C@H](C)CCC[C@@H]2C)C3)OC1 [Compound 36, N-((3R,6S)-6-((2-(5-(2-((2S,6R)-2,6-dimethylpiperidine-1-carbonyl)-4-fluorophenoxy)pyrimidin-4-yl)-2,7-diazaspiro[3.5]nonan-7-yl)methyl)tetrahydro-2H-pyran-3-yl)ethanesulfonamide]	< 50	< 1
CCCNC(=O)N[C@@H]1CC[C@@H](CN2CCC3(CC2)CN(c2ncncc2Oc2ccc(F)cc2C(=O)N(CC)C(C)C)C3)OC1 [Compound 38, N-ethyl-5-fluoro-N-isopropyl-2-((4-(7-(((2S,5R)-5-(3-propylureido)tetrahydro-2H-pyran-2-yl)methyl)-2,7-diazaspiro[3.5]nonan-2-yl)pyrimidin-5-yl)oxy)benzamide]	50 to 100	1 to 1.5
CCNC(=O)N[C@@H]1CC[C@@H](CN2CCC3(CC2)CN(c2ncncc2Oc2ccc(F)cc2C(=O)N(CC)C(C)C)C3)OC1 [Compound 39, N-ethyl-2-((4-(7-(((2S,5R)-5-(3-ethylureido)tetrahydro-2H-pyran-2-yl)methyl)-2,7-diazaspiro[3.5]nonan-2-yl)pyrimidin-5-yl)oxy)-5-fluoro-N-isopropylbenzamide]	< 50	< 1
CCN(C(=O)c1cc(F)ccc1Oc1cncnc1N1CC2(CCN(C[C@@H]3CC[C@@H](NC(=O)NCC(F)F)CO3)CC2)C1)C(C)C [Compound 41, 2-((4-(7-(((2S,5R)-5-(3-(2,2-difluoroethyl)ureido)tetrahydro-2H-pyran-2-yl)methyl)-2,7-diazaspiro[3.5]nonan-2-yl)pyrimidin-5-yl)oxy)-N-ethyl-5-fluoro-N-isopropylbenzamide]	50 to 100	< 1
CCN(C(=O)c1cc(F)ccc1Oc1cncnc1N1CC2(CCN(C[C@@H]3CC[C@@H](NC(=O)NCC4CC4)CO3)CC2)C1)C(C)C [Compound 42, 2-((4-(7-(((2S,5R)-5-(3-(cyclopropylmethyl)ureido)tetrahydro-2H-pyran-2-yl)methyl)-2,7-diazaspiro[3.5]nonan-2-yl)pyrimidin-5-yl)oxy)-N-ethyl-5-fluoro-N-isopropylbenzamide]	> 100	1 to 1.5
CCS(=O)(=O)N[C@@H]1CC[C@@H](CN2CCC3(CC2)CN(c2ncncc2Oc2ccc(F)cc2C(=O)N(C(C)C)[C@@H]2CCOC2)C3)OC1 [Compound 46, 2-((4-(7-(((2S,5R)-5-(ethylsulfonamido)tetrahydro-2H-pyran-2-yl)methyl)-2,7-diazaspiro[3.5]nonan-2-yl)pyrimidin-5-yl)oxy)-5-fluoro-N-isopropyl-N-((R)-tetrahydrofuran-3-yl)benzamide]	< 50	< 1
CCS(=O)(=O)N[C@@H]1CC[C@@H](CN2CCC3(CC2)CN(c2ncncc2Oc2ccc(F)cc2C(=O)N(C(C)C)C2COC2)C3)OC1 [Compound 48, 2-((4-(7-(((2S,5R)-5-(ethylsulfonamido)tetrahydro-2H-pyran-2-yl)methyl)-2,7-diazaspiro[3.5]nonan-2-yl)pyrimidin-5-yl)oxy)-5-fluoro-N-isopropyl-N-(oxetan-3-yl)benzamide]	< 50	< 1
CCS(=O)(=O)N[C@@H]1CC[C@@H](CN2CCC3(CC2)CN(c2ncncc2Oc2ccc(F)cc2C(=O)N(C(C)C)[C@H]2C[C@@H](O)C2)C3)OC1 [Compound 50, 2-((4-(7-(((2S,5R)-5-(ethylsulfonamido)tetrahydro-2H-pyran-2-yl)methyl)-2,7-diazaspiro[3.5]nonan-2-yl)pyrimidin-5-yl)oxy)-5-fluoro-N-((1s,3s)-3-hydroxycyclobutyl)-N-isopropylbenzamide]	< 50	< 1
COCCN(C(=O)c1cc(F)ccc1Oc1cncnc1N1CC2(CCN(C[C@@H]3CC[C@@H](NS(=O)(=O)C4CC4)CO3)CC2)C1)C(C)C [Compound 51, 2-((4-(7-(((2S,5R)-5-(cyclopropanesulfonamido)tetrahydro-2H-pyran-2-yl)methyl)-2,7-diazaspiro[3.5]nonan-2-yl)pyrimidin-5-yl)oxy)-5-fluoro-N-isopropyl-N-(2-methoxyethyl)benzamide]	< 50	–
CC(C)N(C)C(=O)c1cc(F)ccc1Oc1cncnc1N1CC2(CCN(C[C@@H]3CC[C@@H](NS(=O)(=O)c4ccn(C)n4)CO3)CC2)C1 [Compound 53, Fluoro-N-isopropyl-N-methyl-2-((4-(7-(((2S,5R)-5-((1-methyl-1H-pyrazole)-3-sulfonamido)tetrahydro-2H-pyran-2-yl)methyl)-2,7-diazaspiro[3.5]nonan-2-yl)pyrimidin-5-yl)oxy)benzamide]	–	< 1
Cc1nc(S(=O)(=O)N[C@@H]2CC[C@@H](CN3CCC4(CC3)CN(c3ncncc3Oc3ccc(F)cc3C(=O)N(C)C(C)C)C4)OC2)cs1 [Compound 54, 5-Fluoro-N-isopropyl-N-methyl-2-((4-(7-(((2S,5R)-5-((2-methylthiazole)-4-sulfonamido)tetrahydro-2H-pyran-2-yl)methyl)-2,7-diazaspiro[3.5]nonan-2-yl)pyrimidin-5-yl)oxy)benzamide]	–	< 1
CCN(C(=O)c1cc(F)ccc1Oc1cncnc1N1CC2(CCN(C[C@@H]3CC[C@@H](NS(=O)(=O)c4ccc(C)cc4)CO3)CC2)C1)C(C)C [Compound 55, N-Ethyl-5-fluoro-N-isopropyl-2-((4-(7-(((2S,5R)-5-((4-methylphenyl)sulfonamido)tetrahydro-2H-pyran-2-yl)methyl)-2,7-diazaspiro[3.5]nonan-2-yl)pyrimidin-5-yl)oxy)benzamide]	< 50	< 1
CCN(C(=O)c1cc(F)ccc1Oc1cncnc1N1CC2(CCN(C[C@@H]3CC[C@@H](NS(=O)(=O)c4ccccc4C)CO3)CC2)C1)C(C)C [Compound 56, N-Ethyl-5-fluoro-N-isopropyl-2-((4-(7-(((2S,5R)-5-((2-methylphenyl)sulfonamido)tetrahydro-2H-pyran-2-yl)methyl)-2,7-diazaspiro[3.5]nonan-2-yl)pyrimidin-5-yl)oxy)benzamide]	< 50	< 1
CCN(C(=O)c1cc(F)ccc1Oc1cncnc1N1CC2(CCN(C[C@@H]3CC[C@@H](NS(=O)(=O)c4cccc(Cl)c4)CO3)CC2)C1)C(C)C [Compound 57, 2-((4-(7-(((2S,5R)-5-((3-Chlorophenyl)sulfonamido)tetrahydro-2H-pyran-2-yl)methyl)-2,7-diazaspiro[3.5]nonan-2-yl)pyrimidin-5-yl)oxy)-N-ethyl-5-fluoro-N-isopropylbenzamide]	< 50	< 1
CCN(C(=O)c1cc(F)ccc1Oc1cncnc1N1CC2(CCN(C[C@@H]3CC[C@@H](NS(=O)(=O)c4cccc(C)c4)CO3)CC2)C1)C(C)C [Compound 60, N-ethyl-5-fluoro-N-isopropyl-2-((4-(7-(((2S,5R)-5-((3-methylphenyl)sulfonamido)tetrahydro-2H-pyran-2-yl)methyl)-2,7-diazaspiro[3.5]nonan-2-yl)pyrimidin-5-yl)oxy)benzamide]	< 50	< 1
CCN(C(=O)c1cc(F)ccc1Oc1cncnc1N1CC2(CCN(C[C@@H]3CC[C@@H](NS(=O)(=O)c4ccc(Cl)cc4)CO3)CC2)C1)C(C)C [Compound 61, 2-((4-(7-(((2S,5R)-5-((4-Chlorophenyl)sulfonamido)tetrahydro-2H-pyran-2-yl)methyl)-2,7-diazaspiro[3.5]nonan-2-yl)pyrimidin-5-yl)oxy)-N-ethyl-5-fluoro-N-isopropylbenzamide]	< 50	< 1
CCN(C(=O)c1cc(F)ccc1Oc1cncnc1N1CC2(CCN(C[C@@H]3CC[C@@H](NS(=O)(=O)C4CCOCC4)CO3)CC2)C1)C(C)C [Compound 67, N-Ethyl-5-fluoro-N-isopropyl-2-((4-(7-(((2S,5R)-5-((tetrahydro-2H-pyran)-4-sulfonamido)tetrahydro-2H-pyran-2-yl)methyl)-2,7-diazaspiro[3.5]nonan-2-yl)pyrimidin-5-yl)oxy)benzamide]	< 50	< 1
